This note sets out measurements from publication PMC10291553, “Exploring Structure–Activity Relationships in Photodynamic Therapy Anticancer Agents Based on Ir(III)-COUPY Conjugates” (Journal of Medicinal Chemistry, 2023).

Several values for one entry are separate records, joined by “and”; a condition that tells them apart may be missing. Identical values can stand only once. Like-named read-outs stand apart in the source and are kept apart here. Where only a bound is given, the exact number is not on record here.

One test has as its system A2780. In words: Photo- and cytotoxic activity determination (MTT), A2780 cells. The format is cell-based. The note with it: normoxia; for A2780 PI (phototherapeutic index), IC50 dark/IC50 irradiated: 520 nm, dark tested up to 100 μM; for IC50: 48 h drug-free medium. From the text:
(§1) Having shown that the Ir(III)-COUPY conjugates can sensitize both type I and II ROS through spectroscopic techniques and readily internalize into living cells, their photocytotoxicity was screened in various cancer cell lines. This screening included two representative melanoma cell lines (human A375 and […] human SK-MEL-28) and cancer cells with resistance to the clinical drug cisplatin. For the latter, both sensitive and cisplatin-resistant ovarian cancer cells (A2780 and A2780cis) as well as HeLa cells, which also show a degree of chemoresistance to the platinum anticancer drug in vitro,[54] were used. For the determination of dark and light cytotoxicity, dose–response curves were assayed from both conditions to provide the correspondent IC50 values, which correspond to the concentration needed for inhibition of cell growth by 50%. Phototherapeutic index (PI) was calculated as the ratio of dark to light IC50 value for each compound.
(§2) A375, HeLa, and SK-MEL-28 cells were cultured in Dulbecco’s modified Eagle medium (DMEM) supplemented with 10% FBS, L-glutamine, and 1% penicillin–streptomycin. A2780 and A2780cis cells were grown in RPMI-1640 cell medium supplemented with 10% fetal bovine serum (FBS) and 2 mM L-glutamine. Acquired resistance to cisplatin in the A2780cis cell line was maintained by adding cisplatin 1 μM to culture medium every second passage. Cells were cultured in a humidified incubator at 310 K with 5% CO2 atmosphere and subcultured two or three times a week with appropriate densities and were confirmed to be mycoplasma-free using a standard Hoechst DNA staining method.
(§3) A2780, A2780cis, HeLa, A375, and SK-MEL-28 cells were maintained at logarithmic growth-phase and cultured in 96-well plates at a density of 5000 cells/well in complete medium for 24 h at 310 K, 5% CO2 in a humidified incubator. For hypoxia experiments, a hypoxia condition was set up by Tissue Culture Service at University of Murcia using nitrogen (N2) to displace O2 down to a minimum of 2% in a Forma Steri-Cycle i160 incubator (Thermo Fisher Scientific). Serial dilutions of the compounds were added at the final concentrations in the range of 0–100 μM in a final volume of 100 μL per well. A light-based treatment schedule was performed as follows: 1 h incubation with the compounds in the dark, followed by 1 h incubation under irradiation conditions by placing the Photoreactor EXPO-LED from Luzchem (Canada) fitted with green lamps (final light intensity applied of 1.5 mW/cm^2 at λmax = 520 nm) inside the CO2 incubator. All the cell culture plates subjected to light irradiation included untreated controls to verify that cell viability was not affected by light. Then, treatment-containing media was removed, and fresh media was added for a 48 h cell recovery period; the temperature throughout the experiment remained at 310 K. Dark control samples were placed in the same dark conditions and then kept incubated for 1 h in the dark in the humidified CO2 incubator. Medium was then aspirated by suction, cells were loaded with 50 μL of MTT solution (1 mg/mL) for additional 4 h and then removed, and 50 μL of DMSO was added to solubilize the purple formazan crystals formed in active cells. The absorbance was measured at 570 nm using a microplate reader (FLUOstar Omega), and the IC50 values were calculated based on the inhibitory rate curves using the following equation [drawing 4] 4 where I represents the percentage inhibition of viability observed, Imax is the maximal inhibitory effect, IC50 is the concentration that inhibits 50% of maximal growth, C is the concentration of the treatment, and n is the slope of the semi-logarithmic dose–response sigmoidal curves. The non-linear fitting was performed using SigmaPlot 14.0 software. All experiments were performed in three independent studies with n = 3 replicates per concentration level. For a detailed phototoxicity procedure, ref ([43]) includes technical explanations.

Another test has as its system A2780cis cells. In words: Photo- and cytotoxic activity determination (MTT), A2780cis cells, normoxia or hypoxia. The format is cell-based. Particulars: for Hypoxia PI (phototherapeutic index) / Normoxia PI (phototherapeutic index): dark tested up to 250 μM; for A2780cis PI (phototherapeutic index), IC50 dark/IC50 irradiated: dark tested up to 100 μM.
From the text: as §1, §2
as §3, with “Serial dilutions of the compounds were added at the final concentrations in the range of 0–100 μM in a final volume of 100 μL per well.” left out

A further test deals with HeLa. In words: Photo- and cytotoxic activity determination (MTT), HeLa cells. The format is cell-based. The note with it: normoxia; for HeLa PI (phototherapeutic index), IC50 dark/IC50 irradiated: 520 nm, dark tested up to 100 μM; for IC50: 48 h drug-free medium.
From the text: as §1, §2, §3

A further test relates to A375. In words: Photo- and cytotoxic activity determination (MTT), A375 cells. The format is cell-based, human. Particulars: normoxia; for A375 PI (phototherapeutic index), IC50 dark/IC50 irradiated: 520 nm, dark tested up to 100 μM; for IC50: 48 h drug-free medium.
From the text: as §1, §2, §3

[1] abbreviates: A2780cis, hypoxia 2% O2, 520 nm.
Where [2] appears, read: A2780cis, normoxia 21% O2, 520 nm.

Turning to `CCCCn1c2[n+](c3cc(C(=O)NC[C@H]4CC[C@H](C(=O)NCCCNC(=O)C[n+]5ccc(/C(C#N)=C6/C=C(C)c7ccc(N(CC)CC)cc7O6)cc5)CC4)ccc31)[Ir-3]13([c]4ccccc4-c4[nH]c5ccccc5[n+]41)([c]1ccccc1-c1[nH]c4ccccc4[n+]13)[n+]1c-2ccc2ccccc21` [3e], the “A2780 PI (phototherapeutic index), IC50 dark/IC50 irradiated” value in the test on A2780 is given as above 53. In addition, the IC50 in the test on A2780 (1 h incubation + 1 h green light 520 nm, 1.5 mW cm^–2, read-out: A2780 light IC50) was 1.9 ± 0.2 µM; in the test on A2780 (kept in the dark, 2 h treatment, read-out: A2780 dark IC50), above 100 µM; with A2780cis cells (A2780cis, hypoxia 2% O2, dark, tested up to 250 μM, read-out: Hypoxia Dark IC50), above 250 µM; with A2780cis cells (A2780cis, normoxia 21% O2, dark, tested up to 250 μM, read-out: Normoxia Dark IC50), above 250 µM; in the test on A2780cis cells (hypoxia, 520 nm, read-out: A2780cis Light 520 nm IC50 (microM) Hypoxia) it was 1.7 ± 0.3 µM; with A2780cis cells (hypoxia, dark, read-out: A2780cis Dark IC50 (microM) Hypoxia) it was above 250 µM. Moreover, the IC50 with A2780cis cells (normoxia, 1 h incubation + 1 h green light 520 nm, 1.5 mW cm^–2, 48 h drug-free medium, read-out: A2780cis light IC50) was 0.93 ± 0.04 µM; in the test on A2780cis cells (normoxia, dark, up to 250 microM, read-out: A2780cis Dark IC50 (microM) Normoxia), above 250 µM; in the test on A2780cis cells (normoxia, kept in the dark, tested up to 100 μM, 2 h treatment, 48 h drug-free medium, read-out: A2780cis dark IC50), above 100 µM; with HeLa (1 h incubation + 1 h green light 520 nm, 1.5 mW cm^–2, read-out: HeLa light IC50), 9.3 ± 0.8 µM; in the test on HeLa (kept in the dark, 2 h treatment, read-out: HeLa dark IC50), above 100 µM; with A375 (1 h incubation + 1 h green light 520 nm, 1.5 mW cm^–2, read-out: A375 light IC50) it was 19 ± 3 µM. Besides, in the test on A375 (kept in the dark, 2 h treatment, read-out: A375 dark IC50), the IC50 is above 100 µM. Moreover, the “Partial inhibition (% of cell growth inhibition with respect to untreated controls), Hypoxia” value with A2780cis cells (250 μM, A2780cis, 2 h incubation in the dark, 48 h drug-free recovery, hypoxia) was found to be 12 ± 3%. Further, the “Partial inhibition (% of cell growth inhibition with respect to untreated controls), Normoxia” value in the test with A2780cis cells (250 μM, A2780cis, 2 h incubation in the dark, 48 h drug-free recovery, normoxia) is recorded as 18 ± 1%. Besides, the “Hypoxia PI (phototherapeutic index)” value with A2780cis cells (setting [1]) is > 147.1 and > 147. Also, the “Normoxia PI (phototherapeutic index)” value with A2780cis cells (setting [2]) is > 268.8 and > 269. Also, the “A2780cis PI (phototherapeutic index), IC50 dark/IC50 irradiated” value in the test with A2780cis cells (normoxia, 520 nm) is given as above 108. The “HeLa PI (phototherapeutic index), IC50 dark/IC50 irradiated” value with HeLa was above 11. In the test with A375, the “A375 PI (phototherapeutic index), IC50 dark/IC50 irradiated” value is above 5.
As for `CC1=C/C(=C(\C#N)c2cc[n+](C)cc2)Oc2c1cc1c3c2CCCN3CCC1` [1c], the IC50 with A2780 (Homo sapiens, A2780, 1 h incubation + 1 h green light 520 nm, 1.5 mW cm^–2, read-out: A2780 light IC50) came out at 0.09 ± 0.01 µM; in the test on A2780 (Homo sapiens, A2780, kept in the dark, 2 h treatment, read-out: A2780 dark IC50), 5.1 ± 0.9 µM; in the test on A2780cis cells (A2780cis, hypoxia, 520 nm, read-out: A2780cis Light 520 nm IC50 (microM) Hypoxia), 0.6 ± 0.1 µM; in the test on A2780cis cells (A2780cis, hypoxia, dark, read-out: A2780cis Dark IC50 (microM) Hypoxia) it was 20 ± 2 µM; with A2780cis cells (A2780cis, normoxia, 1 h incubation + 1 h green light 520 nm, 1.5 mW cm^–2, 48 h drug-free medium, read-out: A2780cis light IC50) it was 0.15 ± 0.04 µM; with A2780cis cells (A2780cis, normoxia, kept in the dark, tested up to 100 μM, 2 h treatment, 48 h drug-free medium, read-out: A2780cis dark IC50), 15 ± 2 µM. For the same compound, the IC50 with HeLa (Homo sapiens, HeLa, 1 h incubation + 1 h green light 520 nm, 1.5 mW cm^–2, read-out: HeLa light IC50) was 1.1 ± 0.8 µM; in the test with HeLa (Homo sapiens, HeLa, kept in the dark, 2 h treatment, read-out: HeLa dark IC50), 26 ± 4 µM; with A375 (Homo sapiens, A-375, 1 h incubation + 1 h green light 520 nm, 1.5 mW cm^–2, read-out: A375 light IC50), 0.31 ± 0.02 µM; with A375 (Homo sapiens, A-375, kept in the dark, 2 h treatment, read-out: A375 dark IC50), 9.9 ± 0.5 µM. Further, the “A2780 PI (phototherapeutic index), IC50 dark/IC50 irradiated” value in the test on A2780 was 57. Moreover, the inhibition at 250 µM was determined as 100% with A2780cis cells (250 μM, A2780cis, 2 h incubation in the dark, 48 h drug-free recovery, hypoxia, read-out: Partial inhibition (% of cell growth inhibition with respect to untreated controls), Hypoxia) and 100% in the test on A2780cis cells (250 μM, A2780cis, 2 h incubation in the dark, 48 h drug-free recovery, normoxia, read-out: Partial inhibition (% of cell growth inhibition with respect to untreated controls), Normoxia). Also, the “Hypoxia PI (phototherapeutic index)” value in the test with A2780cis cells (setting [1]) turned out to be 36.4. Moreover, the “Normoxia PI (phototherapeutic index)” value in the test on A2780cis cells (setting [2]) was determined as 100.0. For the same compound, the “A2780cis PI (phototherapeutic index), IC50 dark/IC50 irradiated” value in the test on A2780cis cells (normoxia, 520 nm) amounted to 100. Also, in the test with HeLa, the “HeLa PI (phototherapeutic index), IC50 dark/IC50 irradiated” value stood at 24. The “A375 PI (phototherapeutic index), IC50 dark/IC50 irradiated” value in the test on A375 was 32.

Usually IC50 stands for the concentration needed to halve the response being measured. What is called inhibition is the percentage by which the read-out fell short of the control.
